Counter-ions that a name gives are not always drawn. Like-named read-outs stand apart in the source and are kept apart here.
How the values were obtained:
Type in all cases: biochemical
[1] = biological target: T1, Recombinant Human Anaplastic Lymphoma Kinase (Homo sapiens, UniProt Q9UM73); assay: ALK HTRF kinase assay; details: for IC50: Table B1, cells without percent sign
T1 construct: purchased Invitrogen, Carlsbad, Calif
Procedure, shortened: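 Recombinant human ALK phosphorylated a biotinylated synthetic peptide. Phosphotyrosine was detected by TR-FRET between a Eu-labelled anti-phosphotyrosine antibody and streptavidin-allophycocyanin. IC50 values came from fitting signal against inhibitor concentration to a four-parameter logistic equation with variable Hill slope.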

[2] = biological target: T2, human JAK1 (a.a. 837-1142) (Homo sapiens, UniProt P23458); assay: In vitro JAK kinase assay (HTRF, phosphorylation of a biotinylated peptide), JAK1; details: read-out: JAK1 IC50
T2 construct: human JAK1 (a.a. 837-1142); His tag (N); made in house; host or cells: insect cells (baculovirus)
T2 sequence (P23458 849-1154): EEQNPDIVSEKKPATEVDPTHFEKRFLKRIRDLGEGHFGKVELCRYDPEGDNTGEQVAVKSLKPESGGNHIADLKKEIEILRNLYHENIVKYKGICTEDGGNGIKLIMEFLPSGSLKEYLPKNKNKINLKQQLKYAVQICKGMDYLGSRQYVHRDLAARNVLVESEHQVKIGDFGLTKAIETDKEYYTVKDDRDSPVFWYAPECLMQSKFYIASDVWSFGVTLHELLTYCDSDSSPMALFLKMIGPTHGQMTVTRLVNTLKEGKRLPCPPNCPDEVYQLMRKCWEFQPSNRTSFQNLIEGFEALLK
Procedure, shortened: (§1)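 Kinase activity was measured as phosphorylation of a biotinylated peptide, with ATP at 90 μM for JAK1, 30 μM for JAK2 and 3 μM for JAK3. Reactions ran 1 hr at room temperature, were stopped with EDTA plus SA-APC and Eu-Py20, and were read by HTRF after 40 minutes of antibody binding.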

TYK2 = TYK2 (Homo sapiens, UniProt P29597); assay: TYK2 kinase inhibition (Table A1)
Chain of TYK2 (P29597 whole entry): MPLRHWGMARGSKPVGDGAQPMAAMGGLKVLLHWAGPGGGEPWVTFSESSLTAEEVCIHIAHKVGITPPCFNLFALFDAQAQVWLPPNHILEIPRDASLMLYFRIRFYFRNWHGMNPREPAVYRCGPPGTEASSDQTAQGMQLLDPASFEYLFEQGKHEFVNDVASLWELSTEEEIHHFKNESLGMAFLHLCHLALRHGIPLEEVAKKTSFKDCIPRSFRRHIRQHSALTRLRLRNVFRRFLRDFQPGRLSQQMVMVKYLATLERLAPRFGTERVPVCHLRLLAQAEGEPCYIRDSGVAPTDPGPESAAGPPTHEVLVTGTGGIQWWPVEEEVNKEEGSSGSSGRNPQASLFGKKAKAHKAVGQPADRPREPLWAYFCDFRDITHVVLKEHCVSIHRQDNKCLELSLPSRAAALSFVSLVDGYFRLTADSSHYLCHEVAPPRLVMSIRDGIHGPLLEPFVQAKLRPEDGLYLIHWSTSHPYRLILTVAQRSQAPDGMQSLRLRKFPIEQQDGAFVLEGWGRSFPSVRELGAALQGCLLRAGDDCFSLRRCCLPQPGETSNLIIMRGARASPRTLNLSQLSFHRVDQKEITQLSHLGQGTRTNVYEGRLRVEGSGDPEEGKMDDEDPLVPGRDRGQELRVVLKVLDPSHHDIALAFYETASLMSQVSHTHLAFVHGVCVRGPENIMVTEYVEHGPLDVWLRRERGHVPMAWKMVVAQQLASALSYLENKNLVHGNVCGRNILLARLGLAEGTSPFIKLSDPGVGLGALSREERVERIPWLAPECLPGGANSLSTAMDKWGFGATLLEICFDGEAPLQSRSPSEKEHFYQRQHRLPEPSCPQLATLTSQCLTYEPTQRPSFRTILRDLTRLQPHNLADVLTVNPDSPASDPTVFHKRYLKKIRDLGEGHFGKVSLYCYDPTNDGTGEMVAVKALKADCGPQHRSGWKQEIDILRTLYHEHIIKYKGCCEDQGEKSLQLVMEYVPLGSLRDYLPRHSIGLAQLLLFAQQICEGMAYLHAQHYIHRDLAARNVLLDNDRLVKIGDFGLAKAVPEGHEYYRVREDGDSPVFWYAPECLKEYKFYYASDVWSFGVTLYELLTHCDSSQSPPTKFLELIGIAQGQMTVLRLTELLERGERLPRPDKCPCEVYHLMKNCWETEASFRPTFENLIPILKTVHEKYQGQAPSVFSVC

[3] = biological target: T3, human JAK3 (a.a. 781-1124) (Homo sapiens, UniProt P52333); assay: In vitro JAK kinase assay (HTRF, phosphorylation of a biotinylated peptide), JAK3
T3 construct: JAK3 (a.a. 781-1124); His tag (N); made in house; host or cells: insect cells (baculovirus)
T3 sequence (P52333 781-1124): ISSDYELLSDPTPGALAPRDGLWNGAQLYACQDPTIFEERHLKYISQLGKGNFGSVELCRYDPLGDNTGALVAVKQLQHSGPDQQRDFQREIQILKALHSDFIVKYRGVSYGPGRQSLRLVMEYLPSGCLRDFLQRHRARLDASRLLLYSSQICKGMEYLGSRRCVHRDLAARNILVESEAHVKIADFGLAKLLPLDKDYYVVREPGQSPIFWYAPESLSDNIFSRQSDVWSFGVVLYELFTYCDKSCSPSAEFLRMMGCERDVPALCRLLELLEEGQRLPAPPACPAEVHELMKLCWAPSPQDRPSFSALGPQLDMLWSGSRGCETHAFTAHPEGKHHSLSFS
Procedure, shortened: as §1

[4] = biological target: T4, human JAK2 (a.a. 828-1132) (Homo sapiens, UniProt O60674); assay: In vitro JAK kinase assay (HTRF, phosphorylation of a biotinylated peptide), JAK2
T4 construct: JAK2 (a.a. 828-1132); His tag (N); made in house; host or cells: insect cells (baculovirus)
T4 sequence (O60674 828-1132): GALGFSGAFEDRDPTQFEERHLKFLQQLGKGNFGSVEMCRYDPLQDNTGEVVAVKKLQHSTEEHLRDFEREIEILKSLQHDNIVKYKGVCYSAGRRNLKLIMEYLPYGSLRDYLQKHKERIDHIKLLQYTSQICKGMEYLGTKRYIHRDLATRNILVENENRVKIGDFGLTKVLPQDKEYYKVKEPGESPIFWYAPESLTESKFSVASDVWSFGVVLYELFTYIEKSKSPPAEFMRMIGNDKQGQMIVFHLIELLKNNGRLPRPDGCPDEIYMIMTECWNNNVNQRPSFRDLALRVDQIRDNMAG
Procedure, shortened: as §1

[5] = compound at 500 nM or 1 mM, 90 μM ATP
[6] = method AA1 (90 μM ATP) or AA2 (1000 μM ATP), not stated per value
[7] = method AA1 (3 μM ATP) or AA2 (1000 μM ATP), not stated per value
[8] = method AA1 (30 μM ATP) or AA2 (1000 μM ATP), not stated per value
[9] = compound at a concentration of 500 nM or 1 mM (not specified), cells shown as percentage

T1 sequence (Q9UM73 19-1620): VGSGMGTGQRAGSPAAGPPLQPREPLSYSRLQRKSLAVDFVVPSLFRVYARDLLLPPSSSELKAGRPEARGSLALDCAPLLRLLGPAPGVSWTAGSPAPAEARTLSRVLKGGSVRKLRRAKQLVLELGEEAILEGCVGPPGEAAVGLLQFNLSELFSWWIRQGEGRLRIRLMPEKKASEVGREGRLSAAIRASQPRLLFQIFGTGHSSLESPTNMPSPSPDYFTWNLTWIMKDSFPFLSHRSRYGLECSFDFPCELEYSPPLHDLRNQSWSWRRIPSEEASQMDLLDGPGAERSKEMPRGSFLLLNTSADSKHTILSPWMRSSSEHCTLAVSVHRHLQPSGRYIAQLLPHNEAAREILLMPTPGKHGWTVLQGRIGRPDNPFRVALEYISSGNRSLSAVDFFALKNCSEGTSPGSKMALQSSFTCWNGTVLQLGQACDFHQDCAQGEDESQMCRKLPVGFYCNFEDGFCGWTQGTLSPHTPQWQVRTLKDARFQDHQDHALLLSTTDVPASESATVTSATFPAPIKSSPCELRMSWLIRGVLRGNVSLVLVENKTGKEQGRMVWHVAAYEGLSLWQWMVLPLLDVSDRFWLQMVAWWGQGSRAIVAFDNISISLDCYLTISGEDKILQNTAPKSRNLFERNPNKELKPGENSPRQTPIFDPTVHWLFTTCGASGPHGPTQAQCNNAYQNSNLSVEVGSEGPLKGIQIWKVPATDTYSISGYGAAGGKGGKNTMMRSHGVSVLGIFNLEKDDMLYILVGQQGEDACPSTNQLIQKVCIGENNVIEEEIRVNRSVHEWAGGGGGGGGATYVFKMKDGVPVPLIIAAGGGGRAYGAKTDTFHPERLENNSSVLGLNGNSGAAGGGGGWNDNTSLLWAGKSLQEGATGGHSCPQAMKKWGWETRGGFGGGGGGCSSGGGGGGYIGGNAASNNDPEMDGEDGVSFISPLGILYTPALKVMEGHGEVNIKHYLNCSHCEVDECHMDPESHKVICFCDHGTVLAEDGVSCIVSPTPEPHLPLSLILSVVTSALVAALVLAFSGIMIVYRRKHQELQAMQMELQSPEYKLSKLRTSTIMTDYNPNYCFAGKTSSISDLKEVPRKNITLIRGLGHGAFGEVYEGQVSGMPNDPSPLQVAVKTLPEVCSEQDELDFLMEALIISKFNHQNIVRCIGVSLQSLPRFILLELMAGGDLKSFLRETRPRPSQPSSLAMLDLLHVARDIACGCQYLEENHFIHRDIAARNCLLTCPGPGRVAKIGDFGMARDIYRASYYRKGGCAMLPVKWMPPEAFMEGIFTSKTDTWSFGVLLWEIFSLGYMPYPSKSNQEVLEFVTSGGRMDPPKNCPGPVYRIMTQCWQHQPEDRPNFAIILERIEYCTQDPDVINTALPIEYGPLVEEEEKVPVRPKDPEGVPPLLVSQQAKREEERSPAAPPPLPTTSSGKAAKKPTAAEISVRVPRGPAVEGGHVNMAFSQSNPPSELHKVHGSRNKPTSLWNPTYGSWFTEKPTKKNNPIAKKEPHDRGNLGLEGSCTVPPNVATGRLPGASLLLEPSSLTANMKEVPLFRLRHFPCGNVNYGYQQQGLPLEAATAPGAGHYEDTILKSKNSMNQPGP

CC(C)(C)C(=O)N1CCC(CC(=O)Nc2ccc3cc2CCc2cccc(c2)Nc2ncc(Cl)c(n2)N3)CC1 [Example A88, N-[6-Chloro-2,4,8,22-tetraazatetracyclo[14.3.1.1(3,7).1(9,13)]docosa-1(20),3(22),4,6,9(21),10,12,16,18-nonaen-12-yl]-2-[1-(2,2-dimethylpropanoyl)piperidin-4-yl]acetamide trifluoroacetate]
ALK % of inhibition at a concentration of 500 nM or 1 mM [1, 5]: 22% | IC50 [2, 6]: 14 nM | IC50 (TYK2): 47 nM | IC50 [3, 7]: 86 nM | IC50 [4, 8]: 24 nM

Cc1ccc(Cl)cc1NC(=O)Nc1ccc2cc1CCc1cccc(c1)Nc1ncc(Cl)c(n1)N2 [Example B123, N-(5-Chloro-2-methylphenyl)-N′-[6-chloro-2,4,8,22-tetraazatetracyclo[14.3.1.1(3,7).1(9,13)]docosa-1(20),3(22),4,6,9(21),10,12,16,18-nonaen-12-yl]urea trifluoroacetate]
ALK % of inhibition at a concentration of 500 nM or 1 mM [1, 9]: 16% | IC50 ([2]; Table B1): 7.9 nM | IC50 (TYK2; Table B1): 32 nM | IC50 ([3]; Table B1): 110 nM | IC50 ([4]; Table B1): 15 nM

CS(=O)(=O)NCCNC(=O)Nc1ccc2cc1CCc1cccc(c1)Nc1ncc(Cl)c(n1)N2 [Example B187, N-{2-[({[6-Chloro-2,4,8,22-tetraazatetracyclo[14.3.1.1(3,7).1(9,13)]docosa-1(20),3(22),4,6,9(21),10,12,16,18-nonaen-12-yl]amino}carbonyl)amino]ethyl}methanesulfonamide trifluoroacetate]
ALK % of inhibition at a concentration of 500 nM or 1 mM [1, 9]: 29% | IC50 ([2]; Table B1): 0.9 nM | IC50 (TYK2; Table B1): 1.9 nM | IC50 ([3]; Table B1): 2.4 nM | IC50 ([4]; Table B1): 0.4 nM

C[C@H](O)C(=O)Nc1ccc2cc1CCc1cccc(c1)Nc1ncc(Cl)c(n1)N2 [Example A106, (2S)—N-[6-Chloro-2,4,8,22-tetraazatetracyclo[14.3.1.1(3,7).1(9,13)]docosa-1(20),3(22),4,6,9(21),10,12,16,18-nonaen-12-yl]-2-hydroxypropanamide trifluoroacetate]
ALK % of inhibition at a concentration of 500 nM or 1 mM [1, 5]: 21% | IC50 [2, 6]: 18 nM | IC50 (TYK2): 22 nM | IC50 [3, 7]: 6.2 nM | IC50 [4, 8]: 10 nM

CC1CN(C(=O)Nc2ccc3cc2CCc2cncc(c2)Nc2ncc(Cl)c(n2)N3)CCN1c1ccccc1 (stereo not shown) [Example B320, N-[6-Chloro-2,4,8,18,22-pentaazatetracyclo[14.3.1.1(3,7).1(9,13)]docosa-1(20),3(22),4,6,9(21),10,12,16,18-nonaen-12-yl]-3-methyl-4-phenylpiperazine-1-carboxamide tris(trifluoroacetate)]
ALK % of inhibition at a concentration of 500 nM or 1 mM ([1]; percentage inhibition of the example compound at a concentration of 500 nM or 1 mM (not specified which)): 57% | IC50 ([2]; Table B1): 79 nM | IC50 (TYK2; Table B1): > 400 nM | IC50 ([3]; Table B1): > 400 nM | IC50 ([4]; Table B1): > 400 nM

Cc1cccc(N2CCC(CC(=O)Nc3ccc4cc3CCc3cncc(c3)Nc3ncc(Cl)c(n3)N4)CC2)c1C#N [Example A236, N-[6-Chloro-2,4,8,18,22-pentaazatetracyclo[14.3.1.1(3,7).1(9,13)]docosa-1(20),3(22),4,6,9(21),10,12,16,18-nonaen-12-yl]-2-[1-(2-cyano-3-methylphenyl)piperidin-4-yl]acetamide tris(trifluoroacetate)]
ALK % of inhibition at a concentration of 500 nM or 1 mM [1, 5]: 16% | IC50 [2, 6]: 1.7 nM | IC50 (TYK2): > 400 nM | IC50 [3, 7]: > 400 nM | IC50 [4, 8]: 150 nM

O=C(Nc1ccc2cc1CCc1cccc(c1)Nc1ncc(Cl)c(n1)N2)N[C@H]1CCNC1 [Example B167, N-[6-Chloro-2,4,8,22-tetraazatetracyclo[14.3.1.1(3,7).1(9,13)]docosa-1(20),3(22),4,6,9(21),10,12,16,18-nonaen-12-yl]-N′-[(3S)-pyrrolidin-3-yl]urea bis(trifluoroacetate)]
ALK % of inhibition at a concentration of 500 nM or 1 mM [1, 9]: 17% | IC50 ([2]; Table B1): 3.7 nM | IC50 (TYK2; Table B1): 30 nM | IC50 ([3]; Table B1): 43 nM | IC50 ([4]; Table B1): 12 nM

O=C(Nc1ccc2cc1CCc1cccc(c1)Nc1ncc(Cl)c(n1)N2)C1CCCNC1 (stereo not shown) [Example A44, N-[6-Chloro-2,4,8,22-tetraazatetracyclo[14.3.1.1(3,7).1(9,13)]docosa-1(20), 3(22),4,6,9(21),10,12,16,18-nonaen-12-yl]piperidine-3-carboxamide bis(trifluoroacetate)]
ALK % of inhibition at a concentration of 500 nM or 1 mM [1, 5]: 21% | IC50 [2, 6]: 26 nM | IC50 (TYK2): 169 nM | IC50 [3, 7]: 71 nM | IC50 [4, 8]: 52 nM

Clc1ccc(CN2CCN(Cc3cc4cc(c3)Nc3nc(ncc3Cl)Nc3cccc(c3)CC4)CC2)cc1 [Example B199, 6-Chloro-11-{[4-(4-chlorobenzyl)piperazin-1-yl]methyl}-2,4,8,22-tetraazatetracyclo[14.3.1.1(3,7).1(9,13)]docosa-1(20),3(22),4,6,9(21),10,12,16,18-nonaene tris(trifluoroacetate)]
IC50 [1]: > 1000 nM | IC50 ([2]; Table B1): 4.9 nM | IC50 (TYK2; Table B1): 154 nM | IC50 ([3]; Table B1): 64 nM | IC50 ([4]; Table B1): 2.7 nM

CCS(=O)(=O)N1CCC(CC(=O)Nc2ccc3cc2CCc2cncc(c2)Nc2ncc(Cl)c(n2)N3)CC1 [Example A98, N-[6-Chloro-2,4,8,18,22-pentaazatetracyclo[14.3.1.1(3,7).1(9,13)]docosa-1(20),3(22),4,6,9(21),10,12,16,18-nonaen-12-yl]-2-[1-(ethylsulfonyl)piperidin-4-yl]acetamide bis(trifluoroacetate)]
ALK % of inhibition at a concentration of 500 nM or 1 mM [1, 5]: 34% | IC50 [2, 6]: 1 nM | IC50 (TYK2): 5.3 nM | IC50 [3, 7]: 55 nM | IC50 [4, 8]: 2.7 nM

Oc1cc2cc(c1)Nc1nc(ncc1Cl)Nc1cccc(c1)CC2 [Example A22, 6-Chloro-2,4,8,22-tetraazatetracyclo[14.3.1.1(3,7).1(9,13)]docosa-1(20),3(22),4,6,9(21),10,12,16,18-nonaen-11-ol trifluoroacetate]
ALK % of inhibition at a concentration of 500 nM or 1 mM [1, 5]: 54% | IC50 [2, 6]: 11 nM | IC50 (TYK2): 22 nM | IC50 [3, 7]: 10 nM | IC50 [4, 8]: 6.2 nM

O=C(Nc1ccccn1)Nc1ccc2cc1CCc1cccc(c1)Nc1ncc(Cl)c(n1)N2 [Example B253, N-[6-Chloro-2,4,8,22-tetraazatetracyclo[14.3.1.1(3,7).1(9,13)]docosa-1(20),3(22),4,6,9(21),10,12,16,18-nonaen-12-yl]-N′-pyridin-2-ylurea bis(trifluoroacetate)]
ALK % of inhibition at a concentration of 500 nM or 1 mM [1, 9]: 4.9% | IC50 ([2]; Table B1): 90 nM | IC50 (TYK2; Table B1): 173 nM | IC50 ([3]; Table B1): 695 nM | IC50 ([4]; Table B1): 72 nM

O=C(Nc1ccc2cc1CCc1cccc(c1)Nc1ncc(Cl)c(n1)N2)c1ccno1 [Example B53, N-[6-Chloro-2,4,8,22-tetraazatetracyclo[14.3.1.1(3,7).1(9,13)]docosa-1(20), 3(22),4,6,9(21),10,12,16,18-nonaen-12-yl]isoxazole-5-carboxamide trifluoroacetate]
IC50 [1]: 720 nM | IC50 ([2]; Table B1): 2.8 nM | IC50 (TYK2; Table B1): 8 nM | IC50 ([3]; Table B1): 17 nM | IC50 ([4]; Table B1): 2.3 nM

O=C(Nc1cccc(C(F)(F)F)c1)Nc1ccc2cc1CCc1cccc(c1)Nc1ncc(Cl)c(n1)N2 [Example B112, N-[6-Chloro-2,4,8,22-tetraazatetracyclo[14.3.1.1(3,7).1(9,13)]docosa-1(20), 3(22),4,6,9(21),10,12,16,18-nonaen-12-yl]-N′-[3-(trifluoromethyl)phenyl]urea trifluoroacetate]
ALK % of inhibition at a concentration of 500 nM or 1 mM [1, 9]: 3.3% | IC50 ([2]; Table B1): 11 nM | IC50 (TYK2; Table B1): 33 nM | IC50 ([3]; Table B1): 165 nM | IC50 ([4]; Table B1): 34 nM

NC(=O)COc1ccc2cc1CCc1cccc(c1)Nc1ncc(Cl)c(n1)N2 [Example A15, 2-{[6-Chloro-2,4,8,22-tetraazatetracyclo[14.3.1.1(3,7).1(9,13)]docosa-1(20),3(22),4,6,9(21),10,12,16,18-nonaen-12-yl]oxy}acetamide trifluoroacetate]
ALK % of inhibition at a concentration of 500 nM or 1 mM [1, 5]: 79% | IC50 [2, 6]: 2.9 nM | IC50 (TYK2): 3.4 nM | IC50 [3, 7]: 4.8 nM | IC50 [4, 8]: 1.1 nM

O=S(=O)(Nc1ccc2cc1CCc1cccc(c1)Nc1ncc(Cl)c(n1)N2)c1ccc(C(F)(F)F)cc1 [Example B162, N-[6-Chloro-2,4,8,22-tetraazatetracyclo[14.3.1.1(3,7).1(9,13)]docosa-1(20), 3(22),4,6,9(21),10,12,16,18-nonaen-12-yl]-4-(trifluoromethyl)benzenesulfonamide trifluoroacetate]
ALK % of inhibition at a concentration of 500 nM or 1 mM [1, 9]: 16% | IC50 ([2]; Table B1): 1.7 nM | IC50 (TYK2; Table B1): 4.3 nM | IC50 ([3]; Table B1): 26 nM | IC50 ([4]; Table B1): 2.7 nM

O=C(Nc1ccc2cc1CCc1cncc(c1)Nc1ncc(Cl)c(n1)N2)N1CCN(c2ccccc2)CC1 [Example B292, N-[6-Chloro-2,4,8,18,22-pentaazatetracyclo[14.3.1.1(3,7).1(9,13)]docosa-1(20),3(22),4,6,9(21),10,12,16,18-nonaen-12-yl]-4-phenylpiperazine-1-carboxamide tris(trifluoroacetate)]
ALK % of inhibition at a concentration of 500 nM or 1 mM [1, 9]: 68% | IC50 ([2]; Table B1): 32 nM | IC50 (TYK2; Table B1): 100 nM | IC50 ([3]; Table B1): > 200 nM | IC50 ([4]; Table B1): > 200 nM

Reference: patent US8871753B2, “Macrocyclic compounds and their use as kinase inhibitors” (Incyte Corporation, priority 2008, dated 2014)
